Experiments:
[1] = tested on: DNAs from different human cancer tissues, i.e. breast, colon and liver cancers; assay: in vitro synthesis (replication) of DNA from human cancer tissues; type: biochemical; conditions: FIG. 3
Text: (§1) […]
(§2) DNAs used were isolated from human cancer and normal tissues furnished by different hospitals as indicated in IRCS Medical Science 14: 809-810, 1986. The normal brain tissue originated from Macaca mulatta.

[2] = tested on: DNAs from normal tissues (human bone marrow and spleen); assay: in vitro synthesis (replication) of DNA from normal human tissues; type: biochemical; conditions: FIG. 3
Text: as §1, §2

[3] = tested on: DNA from normal monkey brain; assay: in vitro synthesis (replication) of DNA from normal monkey brain; type: biochemical; conditions: Macaca mulatta brain; FIG. 3
Text: as §1, §2

[4] = tested on: DNA from cancerous tissue; assay: in vitro synthesis of tritium-labeled cancer DNA, agent added at different points in time; type: biochemical; conditions: FIGS. 4a, 4b
Text: The same test method was used on DNA from cancerous tissue, determining the amount of tritium-labeled DNA synthesized over a period of time and the effect of introducing naringin at different points in time.

cancer cell DNA = assay: UV absorbance at 260 nm (hypochromicity, DNA chain contraction), cancer cell DNA; conditions: 20 μg DNA in 1 ml Tris-HCl pH 7.3, room temperature, FIGS. 5a, 5b
Text: (§3) Naringin prepared in accordance with Example 1, and a commercial sample of naringenin prepared by Roth Co. of France, were used for comparison. […] The results are expressed as decrease of UV absorbance (hypochromicity) in the presence of various concentrations of the agent. The hypochromicity corresponds to DNA chain contraction, while hyperchromicity would correspond to DNA chain opening (i.e. the breaking of hydrogen bonds which normally hold the two DNA chains together). The spleen and bone marrow DNAs used in this test were from normal human spleen and bone marrow tissue cells. UV absorbance at wavelength of 260 nm for different DNAs from normal and cancer cells is performed at room temperature. 20 μg (micrograms) of DNA (deoxyribonucleic acid) are dissolved in 1 ml of Tris-HC1 buffer (10^-2 molar, pH adjusted to 7.3, solution made using sterile distilled water). The absorbance is measured before and after addition of either naringin or naringenin. The blank cuvette contains an equivalent amount of naringin or naringenin, but not DNA. The contact between DNA and compound is of about one minute (very slight agitation). The absorbance at 260 nm is then measured. The results are expressed as diminution (%) of UV absorbance.

[5] = tested on: normal cell DNA (spleen and bone marrow); assay: UV absorbance at 260 nm (hypochromicity, DNA chain contraction), normal cell DNA; conditions: normal human spleen and bone marrow DNA, 20 μg in 1 ml Tris-HCl pH 7.3, 260 nm; FIGS. 5a, 5b
Text: as §3

human cancer cells = assay: effect on in vitro cultured human cancer cells; type: cell-based; conditions: various concentrations; ovary cancer and leukemic cells resistant to classical chemotherapy; FIG. 2
Description: (§4) Naringin prepared in Example 1 has been used for determining its effect on in vitro cultured human cancer and normal cells, according to the method of Shoermaker R.H. et al., Cancer Research 45: 2145-2153, 1985). Culture medium contained 100 μg of penicillin and streptomycin in order to prevent bacterial contamination.

[6] = tested on: normal human bone marrow cells; assay: effect on in vitro cultured normal human bone marrow cells; type: cell-based; conditions: various concentrations; FIG. 2
Description: as §4

[7] = tested on: tobacco mosaic virus (TMV); assay: tobacco mosaic virus multiplication on tobacco leaf (plaque forming units); conditions: 20-50 micrograms per milliliter, virus incubated at 30° C. for 30 min.; xanthy tobacco leaf; checked two to three days later; FIG. 7
Description: The effect of naringin prepared according to Example 1, of commercial naringin and of commercial naringenin has been tested on tobacco mosaic virus (TMV). In this experiment, viral suspension containing 2 μg of virus/ml of distilled water, was incubated at 30° C. for 30 min. with each of the above compounds (20-50 micrograms per milliliter) and then 20 μl placed on one-half of the leaf ([…] tobacco) while the same concentration of untreated virus was placed on the other half of the same leaf. The appearance of viral disease was checked two to three days later. […] Naringenin or commercial naringin gave similar results.

[8] = tested on: Terminal deoxynucleotidyl Transferase (TdT); assay: in vitro activity of TdT in cat leucosis vaccine (Leucocell); type: biochemical; conditions: 10 minutes at 36° C., pH 7.70, FIG. 6
Text: Both naringin and naringenin inhibit in vitro the activity of Terminal deoxynucleotidyl Transferase (TdT), an enzyme involved in the integration of viral genome into host cell. This enzyme is present in cat leucosis vaccine prepared by genetic engineering (Engerix® Leucocell vaccine), vaccine highly purified. I have previously shown that this enzyme catalyzes the polymerisation of d-TMP and d-CMP originating from d-TTP and d-CTP used respectively as substrates.
(§5) For testing the activity of TdT, the incubation medium (0.10 ml final volume) contains: 25 μmoles fresh solution of Tris-HC1 buffer pH 7.70; 2 μmoles MgCl2; (^3 d-NTP (deoxynucleoside-5'-triphosphate, 100,000 CPM). Increasing amounts of Leucocell vaccine (as indicated in FIG. 6) are used. Incubation for 10 minutes at 36° C., then addition of an equal volume of trichloroacetic acid (TCA 5%). Acid-precipitable material is filtered on millipore (Whatman GF/C), washed with 5% TCA then with 95° alcohol. After millipore drying, radioactivity of acid-insoluble material is measured in scintillation spectrometer Packard. The results are expressed as CPM (counts/minute)/sample.

[9] = tested on: Terminal deoxynucleotidyl Transferase (TdT); assay: in vitro activity of TdT which contaminates Engerix-vaccine antigen B; type: biochemical; conditions: TdT which contaminates Engerix-vaccine antigen B (DNA virus antigen), same conditions
Description: as §5
In contrast, the activity of TdT which contaminates Engerix®-vaccine antigen B (Med. Sci. Res. 1987, vol.15 pp. 529-530), an antigen prepared from DNA virus is not inhibited, under the same conditions, by naringin or naringenin. Thus both naringin and naringenin selectively interfere with the proliferation of RNA virus but not DNA virus. However, as RNA from RNA-virus is transcribed into DNA by reverse transcriptase before being integrated into cell genome (potential role of TdT), naringin and naringenin are equally useful agents in treatment of all DNA infections equally.

BALB C mice = assay: toxicity by intravenous route in BALB C mice; type: in vivo, mouse; conditions: for toxic effect: i.v. route, 10% DMSO, BALB C mice; for tolerability: i.v. injection or perfusion, doses from 250-1000 mg/kg (concluded)
Text: This example illustrates the absence of toxicity of naringin or naringenin injected by intravenous route to BALB C mice.

Ehrlich ascitic cells = assay: mice bearing Ehrlich ascitic cells; type: in vivo, Swiss mice; conditions: than lymphoma YC8 cells
Description: (§6) O BALB C mice bearing lymphoma YC8 (ascitic form) and Swiss mice bearing Ehrlich ascitic cells (20-22 grams, Charles River breeding) were distributed at random in sets of 10.
Set II: Mice bearing tumor cells received JO-1 (= naringin, Example 1): 0.2 ml/mouse, twice/day, i.p. route (for JO-1 concentrations, see Tables 1, 3, and 4, and FIG. 10.)
(§7) Ascitic tumor cells were taken in sterile medium from mice bearing these cells for 15-20 days. 0.1 ml of ascitic suspension was mixed with 10 ml of buffered solution (pH 7.2) : (NaCl 7.2 g/l; Na2 HPO4 4.3 g/l and KH2 PO4 0.4 g/l).
(§8) The number of cells was determined (by Malassez cell) and cellular suspension diluted in order to get cell number close to 40.000-50.000/ml. 0.1 ml of this suspension was immediately injected by i.p. route to mice in sets I, II and III and by i.m. route to mice in set IV.
(§9) Treatment: 48 hours after injection of tumor cells: the mice of set II received (i.p.) JO-1 heated at 37° and filtered on millipore, treatment for five consecutive days; the mice of set III were treated (i.p.) by a mixture of JO-1 and one of the antibiotics for 5 consecutive days; the mice of set I (control) received (i.p.) only isotonic solution for 5 consecutive days; the mice of set IV received (i.m.) JO-1 for 15 consecutive days.
Only the survivors in excellent physical condition were taken into consideration .

tumor cells = assay: mice bearing tumor cells treated with naringin and a chemotherapeutic agent; type: in vivo, mouse; conditions: with 5-fluorouracil, ARA-C, Endoxan, hydroxy-urea; i.p.; FIGS. 9a-9b, 10a-10d
Description: as §6
Set III: Mice bearing tumor cells received naringin (JO-1): 0.2 ml/mouse twice/day (for concentrations, see FIGS. 9 and 10), i.p. route and, at the same time these mice received a chemotherapeutic agent (for concentrations, see FIGS. 9 and 10) i.p. route.
as §7, §8
as §9, with “days. […]” for “days.”

[10] = biological activity compared with commercial compounds; conditions: compared with that exhibited by commercial compounds

## C[C@@H]1O[C@@H](O[C@H]2[C@H](Oc3cc(O)c4c(c3)O[C@H](c3ccc(O)cc3)CC4=O)O[C@H](CO)[C@@H](O)[C@@H]2O)[C@H](O)[C@H](O)[C@H]1O [naringin]
[1]
  inhibition of in vitro synthesis of DNAs from human cancer tissues: strongly inhibits
[2]
  effect on in vitro synthesis of DNAs from normal human tissues: practically unaffected
[3]
  effect on in vitro synthesis of DNA from normal monkey brain: practically unaffected
[4]; added after the reaction starts
  effect on DNA chain elongation: stops DNA chain elongation
[4]; given at zero time of incubation
  effect on DNA initiation: acts on DNA initiation sites
Cancer cell DNA
  contraction of cancer cell DNA chains (hypochromicity): contract cancer cell DNA chains
[5]
  contraction of normal cell DNA chains (hypochromicity): either no effect or a very slight effect
Human cancer cells
  inhibition of in vitro cultured human cancer cells: strongly inhibits
[6]
  effect on in vitro cultured normal human bone marrow cells: little effect
[7]
  inhibition of TMV multiplication: inhibits TMV multiplication
[8]
  inhibition of in vitro activity of TdT: inhibit in vitro activity of TdT
[9]
  inhibition of in vitro activity of TdT: not inhibited
BALB C mice; 125 mg/kg
  toxic effect: no toxic effect
BALB C mice; 250 mg/kg
  toxic effect: no toxic effect
BALB C mice; 500 mg/kg
  toxic effect: no toxic effect
BALB C mice
  tolerability: well tolerated
Ehrlich ascitic cells
  sensitivity of Ehrlich ascitic cells to naringin compared with lymphoma YC8 cells: less sensitive
Tumor cells
  synergistic action with classical antibiotics: synergistic action
[10]
  biological activity: better biological activity

## O=C1C[C@@H](c2ccc(O)cc2)Oc2cc(O)cc(O)c21 [naringenin]
Cancer cell DNA
  contraction of cancer cell DNA chains (hypochromicity): contract cancer cell DNA chains
[5]
  contraction of normal cell DNA chains (hypochromicity): either no effect or a very slight effect
[7]
  inhibition of TMV multiplication: inhibits TMV multiplication
[8]
  inhibition of in vitro activity of TdT: inhibit in vitro activity of TdT
[9]
  inhibition of in vitro activity of TdT: not inhibited
BALB C mice; 125 mg/kg
  toxic effect: no toxic effect
BALB C mice; 250 mg/kg
  toxic effect: no toxic effect
BALB C mice; 500 mg/kg
  toxic effect: no toxic effect
BALB C mice
  tolerability: well tolerated

Reference: patent publication US5145839A, “Pharmaceutical composition and method of use” (priority 1988, dated 1992)
